Test results taken from PubChem BioAssay AID330 (DTP/NCI, 2004).
Where “and” joins values, the source holds several entries; their conditions need not be identical. Equal entries are not always repeated. Inconclusive results and toxic doses are left out. The calls were made as follows: active = survival T/C of 150% or more; inactive = T/C below 125% in these data.

Tested on: P388 leukemia ip, CD2F1 mice, survival T/C
Test: NCI In Vivo Anticancer Drug Screen. Data for tumor model P388 Leukemia (intraperitoneal) in CD2F1 (CDF1) mice
Settings: endpoint: median survival time, higher = longer survival
Outline: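 Mice carrying the transplanted tumor received test compound or vehicle. Survival was recorded in each group, and the value is the treated-group measurement divided by that of the vehicle-treated control group.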

[1] = dose: 15.0 mg/kg/injection, schedule: Q01DX005 (ip), vehicle: Klucel (hydroxypropylcellulose) (HPC)
[2] = dose: 30.0 mg/kg/injection, schedule: Q01DX005 (ip), vehicle: Klucel (hydroxypropylcellulose) (HPC)
[3] = dose: 60.0 mg/kg/injection, schedule: Q01DX005 (ip), vehicle: Klucel (hydroxypropylcellulose) (HPC)
[4] = dose: 120.0 mg/kg/injection, schedule: Q01DX005 (ip), vehicle: Klucel (hydroxypropylcellulose) (HPC)
[5] = dose: 50.0 mg/kg/injection, schedule: Q01DX009 (ip), vehicle: saline with Tween-80
[6] = dose: 100.0 mg/kg/injection, schedule: Q01DX009 (ip), vehicle: saline with Tween-80
[7] = dose: 200.0 mg/kg/injection, schedule: Q01DX009 (ip), vehicle: saline with Tween-80
[8] = dose: 50.0 mg/kg/injection, schedule: Q01DX005 (ip), vehicle: saline with Tween-80
[9] = dose: 100.0 mg/kg/injection, schedule: Q01DX005 (ip), vehicle: saline with Tween-80
[10] = dose: 200.0 mg/kg/injection, schedule: Q01DX005 (ip), vehicle: saline with Tween-80
[11] = dose: 60.0 mg/kg/injection, schedule: Q01DX005 (ip), vehicle: saline with Tween-80
[12] = dose: 120.0 mg/kg/injection, schedule: Q01DX005 (ip), vehicle: saline with Tween-80
[13] = dose: 240.0 mg/kg/injection, schedule: Q01DX005 (ip), vehicle: saline with Tween-80

Measured: T/C

Clc1cc2nc3[nH]c4ccccc4c3nc2cc1Cl
inactive: [1] 93 % of control | [2] 101 % of control | [3] 93 % of control and 98 % of control | [4] 97 % of control

C=C(C)C12CC(C)C34OC5(CCCCCCCC(C)C6C(C)C(OC(=O)c7ccccc7)C(O)(C(O)C7(CO)OC7C3C1O5)C64)O2 (stereo unspecified)
inactive: dose: 3.0 micrograms/kg/injection, schedule: Q01DX009 (ip), vehicle: saline + alcohol 107 % of control | dose: 5.0 micrograms/kg/injection, schedule: Q01DX009 (ip), vehicle: saline + alcohol 109 % of control | dose: 10.0 micrograms/kg/injection, schedule: Q01DX009 (ip), vehicle: saline + alcohol 118 % of control

OCCN=Cc1ccccc1O.OCCN=Cc1ccccc1O.[Cu]
inactive: dose: 50.0 mg/kg/injection, schedule: Q01DX005 (ip), vehicle: Klucel (hydroxypropylcellulose) (HPC) 110 % of control

O=S(=O)(c1ccccc1)N1CC2(CN(S(=O)(=O)c3ccccc3)c3ccccc31)CN(S(=O)(=O)c1ccccc1)c1ccccc1N(S(=O)(=O)c1ccccc1)C2
inactive: dose: 100.0 mg/kg/injection, schedule: Q01DX001 (ip), vehicle: saline with Tween-80 90 % of control | dose: 200.0 mg/kg/injection, schedule: Q01DX001 (ip), vehicle: saline with Tween-80 87 % of control | dose: 400.0 mg/kg/injection, schedule: Q01DX001 (ip), vehicle: saline with Tween-80 88 % of control

Nc1ccccc1Cl
inactive: dose: 31.25 mg/kg/injection, schedule: Q01DX009 (ip), vehicle: saline with Tween-80 95 % of control | dose: 62.5 mg/kg/injection, schedule: Q01DX009 (ip), vehicle: saline with Tween-80 109 % of control | dose: 125.0 mg/kg/injection, schedule: Q01DX009 (ip), vehicle: saline with Tween-80 100 % of control

CCOC(=O)c1ccc(N=NN2CN3CN(C2)CN(N=Nc2ccc(C(=O)OCC)cc2)C3)cc1
inactive: dose: 25.0 mg/kg/injection, schedule: Q04DX002 (ip), vehicle: Klucel (hydroxypropylcellulose) (HPC) 99 % of control | dose: 50.0 mg/kg/injection, schedule: Q04DX002 (ip), vehicle: Klucel (hydroxypropylcellulose) (HPC) 104 % of control | dose: 100.0 mg/kg/injection, schedule: Q04DX002 (ip), vehicle: Klucel (hydroxypropylcellulose) (HPC) 100 % of control and 87 % of control

O=S1(=O)CC(N2CCCCC2)C2=C(O1)c1ccccc1N(c1ccccc1)C2 (stereo unspecified)
inactive: [5] 97 % of control | [6] 96 % of control | [7] 97 % of control

O=S(=O)(O)O.[Cu+2].[NH2-].[NH2-].[NH2-].[NH2-]
inactive: dose: 5.0 mg/kg/injection, schedule: Q04DX002 (ip), vehicle: saline 99 % of control | dose: 6.25 mg/kg/injection, schedule: Q01DX009 (ip), vehicle: saline 86 % of control | dose: 12.5 mg/kg/injection, schedule: Q01DX009 (ip), vehicle: saline 93 % of control

O=C1CCNN1c1ccccc1
inactive: dose: 12.5 mg/kg/injection, schedule: Q01DX009 (ip), vehicle: water 100 % of control | dose: 25.0 mg/kg/injection, schedule: Q01DX009 (ip), vehicle: water 103 % of control | dose: 50.0 mg/kg/injection, schedule: Q01DX009 (ip), vehicle: water 100 % of control | dose: 100.0 mg/kg/injection, schedule: Q01DX009 (ip), vehicle: water 103 % of control | dose: 200.0 mg/kg/injection, schedule: Q01DX009 (ip), vehicle: water 106 % of control

CCC(O)(CC(=O)O)c1ccccc1 (stereo unspecified)
inactive: [6] 104 % of control | [7] 95 % of control

Cc1ccc(S(=O)(=O)CC2(Br)CCc3ccccc3C2=O)cc1 (stereo unspecified)
inactive: dose: 100.0 mg/kg/injection, schedule: Q04DX003 (ip), vehicle: saline 97 % of control | dose: 200.0 mg/kg/injection, schedule: Q04DX003 (ip), vehicle: saline 91 % of control | dose: 400.0 mg/kg/injection, schedule: Q04DX003 (ip), vehicle: saline 95 % of control

COc1ccc(Nc2c3sc4cc(OC)ccc4nc-3c3ccccc3c2=O)cc1
inactive: [8] 94 % of control | [9] 92 % of control | [10] 94 % of control

CCOC(=O)N[C@H]1CCc2cc(O)c(OC)c(OC)c2-c2ccc(SC)c(=O)cc21
inactive: dose: 1.25 mg/kg/injection, schedule: Q01DX009 (ip), vehicle: Klucel (hydroxypropylcellulose) (HPC) 120 % of control | dose: 10.0 mg/kg/injection, schedule: Q01DX009 (ip), vehicle: Klucel (hydroxypropylcellulose) (HPC) 109 % of control

Cc1nc2ccccc2c(=O)n1/N=C/c1ccccc1Cl
inactive: [8] 100 % of control | [9] 99 % of control | [10] 100 % of control

BrCC1C[n+]2c(cc(-c3ccccc3)cc2-c2ccccc2)S1 (stereo unspecified)
inactive: dose: 3.75 mg/kg/injection, schedule: Q01DX005 (ip), vehicle: Klucel (hydroxypropylcellulose) (HPC) 100 % of control | dose: 7.5 mg/kg/injection, schedule: Q01DX005 (ip), vehicle: Klucel (hydroxypropylcellulose) (HPC) 99 % of control

CCC1(C(=O)Sc2ccccc2)OC1c1ccccc1 (stereo unspecified)
inactive: dose: 100.0 mg/kg/injection, schedule: Q01DX001 (ip), vehicle: Klucel (hydroxypropylcellulose) (HPC) 89 % of control | dose: 200.0 mg/kg/injection, schedule: Q01DX001 (ip), vehicle: Klucel (hydroxypropylcellulose) (HPC) 90 % of control | dose: 400.0 mg/kg/injection, schedule: Q01DX001 (ip), vehicle: Klucel (hydroxypropylcellulose) (HPC) 90 % of control

C[C@]12CC(=O)O[C@@H](C[C@H]1OC(=O)c1ccccc1)[C@@]21CO1
inactive: dose: 1.0 mg/kg/injection, schedule: Q04DX002 (ip), vehicle: distilled water + Tween-80 102 % of control | dose: 2.0 mg/kg/injection, schedule: Q04DX002 (ip), vehicle: distilled water + Tween-80 103 % of control | dose: 4.0 mg/kg/injection, schedule: Q04DX002 (ip), vehicle: distilled water + Tween-80 100 % of control | dose: 8.0 mg/kg/injection, schedule: Q04DX002 (ip), vehicle: distilled water + Tween-80 94 % of control | dose: 16.0 mg/kg/injection, schedule: Q04DX002 (ip), vehicle: distilled water + Tween-80 100 % of control

c1ccc2c3c(ccc2c1)Oc1ccc2ccccc2c1C3CCC1c2c(ccc3ccccc23)Oc2ccc3ccccc3c21
inactive: [11] 96 % of control | [12] 95 % of control | [13] 86 % of control

CC(=O)OC1CCC2(C)OC(=O)CC2C1 (stereo unspecified)
inactive: [8] 98 % of control | [9] 100 % of control | [10] 100 % of control

CSC(=N)c1cccc(OCCOc2ccccc2)c1
inactive: [1] 96 % of control | [2] 98 % of control | [3] 91 % of control | [11] 93 % of control | [4] 86 % of control | [12] 101 % of control | dose: 240.0 mg/kg/injection, schedule: Q01DX005 (ip), vehicle: Klucel (hydroxypropylcellulose) (HPC) 91 % of control | [13] 99 % of control

Cc1cc(C)c2nccc(/C=C/c3ccc(N(C)C)cc3)c2c1
inactive: [5] 110 % of control | [6] 108 % of control | [7] 116 % of control | dose: 400.0 mg/kg/injection, schedule: Q01DX009 (ip), vehicle: saline with Tween-80 91 % of control

N=c1c2ccccc2nc2n1CCCCCCC2
inactive: dose: 25.0 mg/kg/injection, schedule: Q04DX003 (ip), vehicle: Klucel (hydroxypropylcellulose) (HPC) 103 % of control | dose: 50.0 mg/kg/injection, schedule: Q04DX003 (ip), vehicle: Klucel (hydroxypropylcellulose) (HPC) 91 % of control

C/C(=N\N)c1nc2ccccc2[nH]1
inactive: dose: 15.0 mg/kg/injection, schedule: Q01DX005 (ip), vehicle: saline with Tween-80 101 % of control | dose: 30.0 mg/kg/injection, schedule: Q01DX005 (ip), vehicle: saline with Tween-80 101 % of control | [3] 100 % of control | [11] 108 % of control

CCSc1nc2ccc(N3C(=O)C=CC3=O)cc2s1
inactive: dose: 3.12 mg/kg/injection, schedule: Q01DX009 (ip), vehicle: Klucel (hydroxypropylcellulose) (HPC) 111 % of control | dose: 6.25 mg/kg/injection, schedule: Q01DX009 (ip), vehicle: Klucel (hydroxypropylcellulose) (HPC) 119 % of control | dose: 12.5 mg/kg/injection, schedule: Q01DX009 (ip), vehicle: Klucel (hydroxypropylcellulose) (HPC) 115 % of control

CCOC(=O)C(=O)c1cn(C)c(=O)n(C)c1=O
inactive: [5] 106 % of control | [6] 104 % of control | [7] 104 % of control
